We go through 3 compounds from patent publication US6083931A, “Method of inhibiting cancer metastasis” (NGK Insulators, Ltd., priority 1997, dated 2000).

Data set [1] can be described thus: Acute toxicity test, intravenous, male Wister-strain rats. Particulars: rat, in vivo, intravenous administration, sodium salts, pH 7.0.
Data set [2] relates to AH66F cancer cells. The data set is described as follows: Life-prolonging effect upon rats with AH66F cancer cells. Type of data set: in vivo, rat. The settings on record: for Survival dates: peritoneally administered, control 7.3 ± 0.3; for Life-prolonging percentage: vs control group. Here is the method:
AH66F cancer cells (1×10^6 cells) were each peritoneally administered to Donryu male rats (six week age, 100-120 g, each group--6 rats). Immediately thereafter, a solution of sialic acid (dosage: 10 mg/kg and 100 mg/kg) or physiological saline solution was peritoneally administered in a dosage of 0.5 ml (control group). Then, after sialic acid or physiological saline solution was peritoneally administered over 2 days, survival dates of the rats were observed.
The life-prolonging percentage was calculated according to the following formula. Life-prolonging percentage=[(survival dates of treated group)-(survival dates of control group)/(survival dates of control group]×100

Data set [3] relates to AH66F cells adhering to M-cells. The data set is described as follows: Inhibition of adhesion of AH66F cells to M-cells under coexistence of anti-LFA-1 antibody. Type of data set: cell-based, rat. Here is the method: (§1) Mesentery cells (M-cells) originating from a rat was cultivated inside a cell-cultivating well plate with a Dulbecco's Modification of Eagle's Medium (DMEM) containing 5% fetal calf serum (FCS). When the cells spread over the entire face of the well, the cells were washed with DMEM containing no FC3. Further, the cells were cultivated with DMEM containing 10 μg/ml or 100 μg/ml of sialic acid at 37° C. After 45 minutes passed, the well was washed with DMEM, and rat AH66F cells ([…]) and sialic acid at a concentration shown in FIG. 1 were added together with DMEM. The mixture was cultivated at 37° C. for one hour. After the cultivation, the mixture was stirred for 30 second, and a cultivation supernatant liquid was taken into a sample tube. Into each well was added 200 μl of fresh DMEM, and washing was similarly carried out under stirring for 15 seconds. […] Then, the number of the cells was measured by a haemacytometer under a microscope (the number of non-adhered cells).
(§2) As a control, only cancer cells were cultivated, the same operations as mentioned above were effected, and the number of the cells were measured (the number of cells in control).
(§3) The adhesive rate (%) of the cancer cells was calculated according to the following calculating formula. […]

Data set [4] concerns rat AH66F cells adhering to mesentery cells (M-cells). The data set is described as follows: Inhibition of adhesion of rat AH66F cancer cells to rat mesentery cells (M-cells). Type of data set: cell-based. Particulars: average over four wells.
From the text: The present inventors employed, as a model system for the measurement of the metastasis-inhibiting action upon the cancer cells, a system in which rat ascites hepatoma as extremely malignant cancer cells were adhered to mesenteries of a rat. They also employed a cell system as a simpler technique. As the former cancer cells, AH66F-cells were used, whereas M-cells were used as the latter mesentery cells.
as §1, with “DMEM.” for “DMEM. The mixture was cultivated at 37° C. for one hour. After the cultivation, the mixture was stirred for 30 second, and a cultivation supernatant liquid was taken into a sample tube. Into each well was added 200 μl of fresh DMEM, and washing was similarly carried out under stirring for 15 seconds.”
as §2, §3

Counter-ions that a name gives are not always drawn.

In general, LD50 refers to the dose at which mortality reaches 50%. One may read the inhibition as the relative decrease from the control value, in per cent. Read a low inhibition as a response near the control.

Take `CC(=O)NC1C(O)CC(OC(CO)C(O)C2OC(OC(CO)C(O)C3OC(O)(C(=O)O)CC(O)C3NC(C)=O)(C(=O)O)CC(O)C2NC(C)=O)(C(=O)O)OC1C(O)C(O)CO` (stereo not drawn) [trimer]: in data set [1], the LD50 is not below 2000 mg/kg.
Still for that read-out and setting: the same measure for `CC(=O)N[C@H]1[C@H]([C@H](O)[C@H](O)CO)OC(O)(C(=O)O)C[C@@H]1O` (stereo partly drawn) [sodium salts of sialic acid]: not below 2000 mg/kg.
With `CC(=O)N[C@H]1[C@H]([C@H](O)[C@H](O)CO)OC(O)(C(=O)O)C[C@@H]1O` (stereo partly drawn) [sialic acid, N-acetylneuraminic acid], the “life-prolonging effect, times that of control group” value in data set [2] (10 mg/Kg) is 1.6 times; in data set [2] (100 mg/Kg) it was 1.8 times. The Survival dates in data set [2] (10 mg/Kg × 3 days) turned out to be 11.5 ± 0.4; in data set [2] (100 mg/Kg × 3 days), 13.4 ± 0.4. Further, the results for the Life-prolonging percentage in data set [2] (10 mg/Kg × 3 days) and in data set [2] (100 mg/Kg × 3 days) were 58% and 84%, respectively. Also, the inhibition at 100 µg/mL in data set [3] (Rattus norvegicus, 100 μg/ml sialic acid under coexistence of 10 μg/ml anti-LFA-1 antibody) is 7%; in data set [4] (100 μg/ml sialic acid), 31%. Also, the “synergistic effect on adhesion inhibition (in words)” value in data set [3] (sialic acid with anti-LFA-1 antibody) is on record as “synergistic effect”. Further, the inhibition at 10 µg/mL in data set [4] (10 μg/ml sialic acid) is 27%.
